For this data set the following is noted: 101.33 kPa, Liquid, Vibrating tube method.

Numbers after ± are expanded uncertainties.

With `ClC(Cl)C(Cl)Cl` [1,1,2,2-tetrachloroethane], the mass density (288.15 K) was 1601.45 ± 2.3 kg/m3; the mass density (293.15 K) stood at 1593.65 ± 2.3 kg/m3; the mass density (298.15 K) was found to be 1585.87 ± 2.3 kg/m3; the mass density (303.15 K) was determined as 1578.07 ± 2.3 kg/m3; the mass density (308.15 K) amounted to 1570.27 ± 2.2 kg/m3; the mass density (313.15 K) amounted to 1562.45 ± 2.2 kg/m3.

Turning to `ClCCCl` [1,2-dichloroethane], the mass density stood at 1259.99 ± 0.45 kg/m3 (288.15 K); 1252.77 ± 0.44 kg/m3 (293.15 K); 1245.49 ± 0.44 kg/m3 (298.15 K); 1238.18 ± 0.43 kg/m3 (303.15 K); 1230.84 ± 0.42 kg/m3 (308.15 K); 1223.46 ± 0.42 kg/m3 (313.15 K).

For `CCCCCC(C)=O` [2-heptanone], the mass density (288.15 K) was found to be 819.786 ± 0.65 kg/m3; the mass density (293.15 K) amounted to 815.497 ± 0.64 kg/m3; the mass density (298.15 K) was determined as 811.198 ± 0.64 kg/m3; the mass density (303.15 K) is reported as 806.887 ± 0.63 kg/m3; the mass density (308.15 K) is 802.562 ± 0.63 kg/m3; the mass density (313.15 K) was determined as 798.222 ± 0.63 kg/m3.

Regarding `CCC(C)=O` [butanone], the mass density is 810.262 ± 0.24 kg/m3 (288.15 K); 805.058 ± 0.24 kg/m3 (293.15 K); 799.828 ± 0.24 kg/m3 (298.15 K); 794.565 ± 0.24 kg/m3 (303.15 K); 789.273 ± 0.24 kg/m3 (308.15 K); 783.946 ± 0.24 kg/m3 (313.15 K).

For `O=C1CCCCC1` [cyclohexanone], the mass density is on record as 951.178 ± 0.23 kg/m3 (288.15 K); 946.713 ± 0.23 kg/m3 (293.15 K); 942.243 ± 0.23 kg/m3 (298.15 K); 937.767 ± 0.23 kg/m3 (303.15 K); 933.285 ± 0.23 kg/m3 (308.15 K); 928.795 ± 0.23 kg/m3 (313.15 K).
